Assay results published in US9029337B2, “Modulation of factor 7 expression” (Isis Pharmaceuticals, Inc., priority 2007, dated 2015).
Strand notation (5' to 3'): a small letter for the sugar, then the base; units joined by * are phosphorothioate-linked, units joined directly phosphodiester-linked; [ ] holds rarer units or linkages, { } end groups; capitals alone tell only the bases. e = 2'-O-(2-methoxyethyl) (MOE); [5mC] = 5-methylcytosine; d = 2'-deoxy (DNA)

tested on: human Factor 7 mRNA; assay: Antisense inhibition of human Factor 7 mRNA in HepB3 cells, 50 nM antisense oligonucleotide, lipofectin; format: cell-based; conditions: Table 13 (microwalk), 50 nM, lipofectin, approximately 24 hours
Procedure, shortened: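 After transfection of wells containing 4,000 cells, treatment ran for approximately 24 h. RIBOGREEN®-measured total RNA served for normalisation, and inhibition was calculated as a percentage of untreated control.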

“422085 (antisense eG*e[5mC]*eA*eT*eG*dG*dT*dG*dA*dT*dG*d[5mC]*dT*dT*d[5mC]*eT*eG*eA*eA*eT) [compound 422085]” was tested, and the “% Inhibition” value was 70%.

same assay, conditions: lipofectin, 50 nM antisense oligonucleotide, approximately 24 hours, Factor 7 mRNA by real-time RT-PCR (RTS 2927), relative to untreated control

Point of comparison: “416541 (antisense e[5mC]*e[5mC]*eA*e[5mC]*e[5mC]*d[5mC]*dT*dT*dG*dG*dT*dG*d[5mC]*d[5mC]*d[5mC]*eA*eG*eA*eT*e[5mC]) [compound 416541]”, “% Inhibition” value 53%. Against it:
- 416540 (antisense eG*eG*eA*e[5mC]*eT*dG*dG*dT*dG*dT*d[5mC]*dA*dT*d[5mC]*dT*eG*eG*eG*eA*e[5mC]) [compound 416540] — lower, 38%
- 416542 (antisense e[5mC]*eA*eG*eG*eG*dT*dG*d[5mC]*d[5mC]*d[5mC]*dA*dT*d[5mC]*d[5mC]*dT*eA*eG*eT*e[5mC]*eA) [compound 416542] — higher, 56%
- 416543 (antisense eT*e[5mC]*e[5mC]*eT*eG*d[5mC]*dG*dA*dG*dT*dG*dG*dG*dA*dG*eT*eT*eG*eG*eA) [compound 416543] — lower, 0%
- 416544 (antisense eA*eT*e[5mC]*e[5mC]*e[5mC]*dA*dT*dT*dT*dT*d[5mC]*d[5mC]*d[5mC]*dA*dG*eG*eA*eG*e[5mC]*e[5mC]) [compound 416544] — higher, 58%
- 416545 (antisense eA*eG*eA*eA*eA*d[5mC]*dA*dT*d[5mC]*d[5mC]*d[5mC]*dA*dT*dT*dT*eT*e[5mC]*e[5mC]*e[5mC]*eA) [compound 416545] — lower, 8%
- 416546 (antisense e[5mC]*e[5mC]*eA*eG*eG*d[5mC]*dT*dG*dG*dT*dT*dT*dG*dG*dA*eG*eA*eA*eA*e[5mC]) [compound 416546] — lower, 21%
- 416547 (antisense eA*eT*eG*eA*eA*dA*dT*dT*d[5mC]*dT*dA*d[5mC]*d[5mC]*dT*dA*eA*eA*eG*eA*eT) [compound 416547] — lower, 0%
- 416548 (antisense eA*eG*eG*eT*eG*dA*dA*dT*dG*dA*dA*dA*dT*dT*d[5mC]*eT*eA*e[5mC]*e[5mC]*eT) [compound 416548] — lower, 29%
- 416550 (antisense eT*eG*eG*e[5mC]*eT*dG*dG*d[5mC]*dT*dG*dA*dG*dG*dA*dG*eA*e[5mC]*eA*eA*eT) [compound 416550] — higher, 55%
- 416551 (antisense e[5mC]*eA*eG*eA*eA*dA*d[5mC]*dA*d[5mC]*d[5mC]*d[5mC]*dA*dT*d[5mC]*d[5mC]*eT*e[5mC]*eT*eG*eA) [compound 416551] — lower, 19%
- 416552 (antisense eT*e[5mC]*eT*eG*e[5mC]*dA*d[5mC]*dA*dG*dG*dG*dT*dA*dG*dA*e[5mC]*e[5mC]*e[5mC]*eT*e[5mC]) [compound 416552] — lower, 46%
- 416553 (antisense eG*eG*eT*eT*e[5mC]*dT*d[5mC]*dT*dG*d[5mC]*dA*d[5mC]*dA*dG*dG*eG*eT*eA*eG*eA) [compound 416553] — higher, 56%
- 416554 (antisense eA*eA*eA*eG*eA*dT*d[5mC]*d[5mC]*d[5mC]*dA*d[5mC]*d[5mC]*dT*d[5mC]*dA*eA*eA*eG*eA*eG) [compound 416554] — lower, 7%
- 416555 (antisense eA*eA*eA*eG*eA*dT*d[5mC]*dA*dG*dG*d[5mC]*dA*dA*dA*dG*eA*eT*e[5mC]*e[5mC]*e[5mC]) [compound 416555] — lower, 6%
- 416556 (antisense eA*eT*eA*eG*e[5mC]*dT*dT*dT*dG*dA*dT*d[5mC]*d[5mC]*dA*dA*eT*eG*e[5mC]*eT*e[5mC]) [compound 416556] — the same, 53%
- 416557 (antisense eT*e[5mC]*e[5mC]*e[5mC]*eA*dG*dG*d[5mC]*dA*dA*dA*dG*d[5mC]*dT*dG*e[5mC]*eT*e[5mC]*eA*eG) [compound 416557] — higher, 56%
- 416558 (antisense eT*eG*eA*e[5mC]*eA*dG*d[5mC]*dA*d[5mC]*dG*dA*dA*dG*d[5mC]*d[5mC]*e[5mC]*eA*eG*eA*eG) [compound 416558] — lower, 19%
- 416559 (antisense eG*e[5mC]*e[5mC]*eA*eT*dT*dT*d[5mC]*dT*dA*dG*dG*dT*d[5mC]*dT*eG*e[5mC]*eA*eG*eG) [compound 416559] — lower, 25%
- 416560 (antisense eT*eA*eA*eA*eA*d[5mC]*dT*dT*dT*dA*dT*dT*dT*dA*d[5mC]*eA*eA*eG*eA*eG) [compound 416560] — lower, 0%
- 416561 (antisense eG*eG*eT*eG*eT*dG*dT*dT*d[5mC]*d[5mC]*d[5mC]*dA*dT*dA*dA*eA*eA*e[5mC]*eT*eT) [compound 416561] — lower, 16%
- 416562 (antisense eA*eA*eA*eG*e[5mC]*dA*dG*dA*dG*d[5mC]*d[5mC]*dA*dG*d[5mC]*dT*e[5mC]*eT*eG*eA*e[5mC]) [compound 416562] — lower, 12%
- 416563 (antisense eG*e[5mC]*e[5mC]*eT*eG*d[5mC]*dA*dT*dT*dT*d[5mC]*d[5mC]*d[5mC]*dA*dT*eT*eG*eG*e[5mC]*eA) [compound 416563] — lower, 0%
- 416564 (antisense eG*e[5mC]*e[5mC]*eA*e[5mC]*dT*d[5mC]*dA*d[5mC]*dA*dG*dA*dA*dA*dG*e[5mC]*eT*eG*eG*eA) [compound 416564] — lower, 0%
- 416565 (antisense e[5mC]*eA*eG*eG*eA*dT*dG*d[5mC]*dT*d[5mC]*dA*dT*dG*dG*d[5mC]*eA*eG*eA*e[5mC]*eA) [compound 416565] — lower, 0%
- 416566 (antisense eG*eT*eT*eT*eG*dT*dA*dT*dG*dG*dA*dG*dA*dG*dA*e[5mC]*e[5mC]*eA*eA*eT) [compound 416566] — lower, 0%
- 416567 (antisense eT*eG*eG*eT*eG*dG*d[5mC]*dA*d[5mC]*d[5mC]*dA*dG*dA*dT*dG*eT*e[5mC]*eT*eG*eA) [compound 416567] — lower, 2%
- 416568 (antisense e[5mC]*eA*eT*eT*eG*dT*dG*d[5mC]*d[5mC]*dT*dG*dG*d[5mC]*dA*d[5mC]*eA*e[5mC]*eA*eG*eG) [compound 416568] — lower, 14%
- 416569 (antisense eG*e[5mC]*e[5mC]*eT*eG*dG*dT*dG*dT*dG*d[5mC]*dA*d[5mC]*dA*d[5mC]*eA*eT*eT*eG*eT) [compound 416569] — lower, 12%

same assay, conditions: oligonucleotides targeted to nucleobases 11830 to 11869 of SEQ ID NO: 1 (Table 9)

Point of comparison: “422098 (antisense eG*eG*eA*eG*eA*d[5mC]*dA*dA*dT*dG*dG*dT*d[5mC]*dA*dG*eG*eG*e[5mC]*eT*eG) [compound 422098]”, “% Inhibition (human Factor 7 mRNA levels)” value 53%. Against it:
- 422088 (antisense eT*e[5mC]*eA*eG*eG*dG*d[5mC]*dT*dG*dG*dT*dT*dT*dT*dG*eG*eA*eG*eG*eA) [compound 422088] — lower, 8%
- 422089 (antisense eG*eT*e[5mC]*eA*eG*dG*dG*d[5mC]*dT*dG*dG*dT*dT*dT*dT*eG*eG*eA*eG*eG) [compound 422089] — lower, 22%
- 422090 (antisense eG*eG*eT*e[5mC]*eA*dG*dG*dG*d[5mC]*dT*dG*dG*dT*dT*dT*eT*eG*eG*eA*eG) [compound 422090] — lower, 42%
- 422091 (antisense eT*eG*eG*eT*e[5mC]*dA*dG*dG*dG*d[5mC]*dT*dG*dG*dT*dT*eT*eT*eG*eG*eA) [compound 422091] — lower, 42%
- 422092 (antisense eA*eT*eG*eG*eT*d[5mC]*dA*dG*dG*dG*d[5mC]*dT*dG*dG*dT*eT*eT*eT*eG*eG) [compound 422092] — lower, 36%
- 422093 (antisense eA*eA*eT*eG*eG*dT*d[5mC]*dA*dG*dG*dG*d[5mC]*dT*dG*dG*eT*eT*eT*eT*eG) [compound 422093] — lower, 42%
- 422094 (antisense e[5mC]*eA*eA*eT*eG*dG*dT*d[5mC]*dA*dG*dG*dG*d[5mC]*dT*dG*eG*eT*eT*eT*eT) [compound 422094] — lower, 48%
- 422095 (antisense eA*e[5mC]*eA*eA*eT*dG*dG*dT*d[5mC]*dA*dG*dG*dG*d[5mC]*dT*eG*eG*eT*eT*eT) [compound 422095] — higher, 60%
- 422097 (antisense eG*eA*eG*eA*e[5mC]*dA*dA*dT*dG*dG*dT*d[5mC]*dA*dG*dG*eG*e[5mC]*eT*eG*eG) [compound 422097] — higher, 59%
- 422099 (antisense eA*eG*eG*eA*eG*dA*d[5mC]*dA*dA*dT*dG*dG*dT*d[5mC]*dA*eG*eG*eG*e[5mC]*eT) [compound 422099] — lower, 48%
- 422100 (antisense eG*eA*eG*eG*eA*dG*dA*d[5mC]*dA*dA*dT*dG*dG*dT*d[5mC]*eA*eG*eG*eG*e[5mC]) [compound 422100] — higher, 59%
- 422101 (antisense eT*eG*eA*eG*eG*dA*dG*dA*d[5mC]*dA*dA*dT*dG*dG*dT*e[5mC]*eA*eG*eG*eG) [compound 422101] — lower, 42%
- 422102 (antisense e[5mC]*eT*eG*eA*eG*dG*dA*dG*dA*d[5mC]*dA*dA*dT*dG*dG*eT*e[5mC]*eA*eG*eG) [compound 422102] — higher, 62%
- 422103 (antisense eG*e[5mC]*eT*eG*eA*dG*dG*dA*dG*dA*d[5mC]*dA*dA*dT*dG*eG*eT*e[5mC]*eA*eG) [compound 422103] — lower, 38%
- 422104 (antisense eG*eG*e[5mC]*eT*eG*dA*dG*dG*dA*dG*dA*d[5mC]*dA*dA*dT*eG*eG*eT*e[5mC]*eA) [compound 422104] — higher, 59%
- 422105 (antisense eT*eG*eG*e[5mC]*eT*dG*dA*dG*dG*dA*dG*dA*d[5mC]*dA*dA*eT*eG*eG*eT*e[5mC]) [compound 422105] — higher, 60%
- 422106 (antisense e[5mC]*eT*eG*eG*e[5mC]*dT*dG*dA*dG*dG*dA*dG*dA*d[5mC]*dA*eA*eT*eG*eG*eT) [compound 422106] — lower, 32%
